Data: PMC12445744, “Molecular docking to homology models of human and Trypanosoma brucei ERK8 that identified ortholog-specific inhibitors” (PLOS Neglected Tropical Diseases, 2025)
“And” between values parts separate entries of the source, which are not always exact repeats. Equal entries are not always repeated.

Assays:
TbERK8 [1] = target: T1, TbERK8 (Trypanosoma brucei brucei, UniProt Q38B88); conditions: cited from earlier work
T1 sequence (Q38B88 1-442): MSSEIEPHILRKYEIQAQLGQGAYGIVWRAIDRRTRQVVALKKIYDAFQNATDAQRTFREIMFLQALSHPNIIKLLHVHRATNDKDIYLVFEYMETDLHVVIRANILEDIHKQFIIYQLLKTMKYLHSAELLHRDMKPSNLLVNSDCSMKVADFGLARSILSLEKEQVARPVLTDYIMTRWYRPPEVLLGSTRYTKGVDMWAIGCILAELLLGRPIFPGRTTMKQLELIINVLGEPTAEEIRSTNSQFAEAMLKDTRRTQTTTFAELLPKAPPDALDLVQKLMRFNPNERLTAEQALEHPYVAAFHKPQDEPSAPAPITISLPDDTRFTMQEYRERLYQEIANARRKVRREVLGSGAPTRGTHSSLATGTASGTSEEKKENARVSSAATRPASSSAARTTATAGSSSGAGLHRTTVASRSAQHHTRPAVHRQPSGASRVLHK

T. brucei = conditions: cited from earlier work
HsERK8 [2] = target: T2, HsERK8 (Homo sapiens, UniProt Q8TD08); conditions: cited from earlier work
T2 construct: plasmid pGEX2T expressing the full-length hERK8 coding region; made in house; host or cells: Escherichia coli Rosetta 2 (DE3)
T2 sequence (Q8TD08 1-544): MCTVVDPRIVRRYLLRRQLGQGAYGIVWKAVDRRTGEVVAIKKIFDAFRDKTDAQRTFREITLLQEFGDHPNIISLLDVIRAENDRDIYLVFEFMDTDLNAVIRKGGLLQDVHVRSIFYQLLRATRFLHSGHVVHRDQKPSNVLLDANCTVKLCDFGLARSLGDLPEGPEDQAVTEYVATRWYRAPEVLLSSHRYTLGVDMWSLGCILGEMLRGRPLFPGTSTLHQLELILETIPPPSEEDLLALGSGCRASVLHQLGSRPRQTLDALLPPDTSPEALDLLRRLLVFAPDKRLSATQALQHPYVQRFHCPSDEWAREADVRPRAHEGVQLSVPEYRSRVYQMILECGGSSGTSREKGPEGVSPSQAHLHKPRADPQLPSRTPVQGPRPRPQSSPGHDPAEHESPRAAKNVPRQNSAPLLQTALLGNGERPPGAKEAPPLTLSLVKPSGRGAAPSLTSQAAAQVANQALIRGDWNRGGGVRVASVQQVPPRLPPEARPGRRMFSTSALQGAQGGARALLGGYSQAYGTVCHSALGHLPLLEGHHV

HsERK8 [3] = target: T2, HsERK8; experiment: Luciferase-based kinase inhibition assay (ATP luminescence), GST-tagged HsERK8 with MBP substrate; type: biochemical; conditions: for raw luminescence, HsERK8: sheet Kinase_glo_080924_IFPS (2), replicate wells
Experimental: (§1) Escherichia coli strain Rosetta 2 (DE3) (Cat# 71397, MilliporeSigma, Burlington, MA) was transformed with the plasmid pGEX2T expressing the full-length hERK8 coding region or pGSTAg expressing the full-length TbERK8 coding region. One liter of Terrific Broth media containing 100 μg/ml Ampicillin and 30 μg/ml chloramphenicol in 2 L baffled flasks was inoculated with 25 mL from an overnight culture of Rosetta 2 strains harboring either the pGEX2T-hERK8 or pGSTAg-TbERK8 plasmid. Two baffled flasks were inoculated with each overnight strain and incubated and shaken at 175 RPM in a New Brunswick Innova 44R Incubator Shaker (Fischer Scientific, Pittsburgh, PA) at 37 °C until the cultures reached an O.D.600 of 0.94. Once the cultures in the flask reached the target O.D.600, the flasks were cooled to 4 °C in an ice water bath. The cooled cultures were induced by adding isopropyl β-D-1-thiogalactopyranoside (IPTG) to a final concentration of 0.1 mM and shaken at 16 °C for 16 hours at 175 RPM in a New Brunswick Innova 44R Incubator Shaker (Fischer Scientific, Pittsburgh, PA). On the next day, the cultures were pelleted by centrifugation at 9000 xg in a JLA 10.500 rotor (Beckman Coulter; Brea, CA), and the media was decanted. The pellet was flash-frozen in liquid nitrogen and then thawed on ice. The thawed pellet was resuspended in lysis buffer (25 mM Tris, 75 mM NaCl, 0.5% TritonX-100 and 0.5% Nonidet P-40, 1 mM phenylmethanesulfonyl fluoride, 1 mM benzamidine⋅HCl) and lysed using a microfluidizer M-110P from Microfluidics (Westwood, MA). The crude lysates were clarified by centrifugation at 140,000 xg in a 45Ti rotor (Beckman Coulter, Brea, CA) for 30 min at 4°C. The clarified lysate was loaded by gravity to a 3 mL glutathione agarose resin column (Cat# G-250–10, GOLDBIO, St. Louis, MO) formed in a 1.5 × 20 cm glass chromatography column (Cat# 7371522, Bio-Rad, Hercules, CA). The column was washed with 30 mL of PBS (pH 7.4) containing 1 mM DTT. Elution buffer (50 mM Tris buffer pH 8.0 containing 10 mM reduced glutathione and 1 mM DTT was added to the washed column), and 1 mL fractions were collected by gravity and examined by SDS-PAGE stained by Coomassie dye. Peak fractions pooled from the elution were dialyzed (4x 1:500 dilutions) in kinase buffer (30 mM Tris, pH 7.4, 10 mM MgCl2, 1 mM DTT, 5% glycerol).
(§2) We performed kinase assays in buffer K (30 mM Tris pH 7.4, 10 mM MgCl2, 1 mM DTT, 5% glycerol, 50 μM ATP, and 0.1 mg/mL BSA) at 30°C for 30 min in 30 μL reactions. GST-tagged HsERK8 and TbERK8 were tested using myelin basic protein (MBP) (Cat# 13–110, Millipore, Darmstadt, Germany) as the substrate at increasing concentrations to determine the optimal activity for the assay. ATP consumption was determined by adding equal volumes of the kinase assay reagent (Promega, Cat# V5601, Madison, WI) following the manufacturer’s protocol. Luminescence was measured using the microplate reader (SpectraMax L, Molecular Devices, Sunnyvale, CA).
(§3) These compounds were screened for kinase inhibition utilizing a luciferase-based assay. Briefly, the kinases were tested using MBP as the substrate at a 14-fold molar excess in 384-well flat-bottom white plates (BRANDTECH Scientific, Cat# 781681, Essex, CT). These compounds were tested at concentrations ranging from […] to 150 nM. The kinases plus MBP substrate reactions were incubated with each inhibitor for 30 minutes at 30°C. Equal volumes of kinase assay mix Promega (Cat# V5601, Madison, WI) were added to the kinase/inhibitor reaction after 30 minutes, following the manufacturer’s protocol. ATP luminescence was measured using a microplate reader (SpectraMax L, Molecular Devices, Sunnyvale, CA). IC50 values were calculated from assays done in triplicate by fitting the data using Prism 8.1.1 (GraphPad).

TbERK8 [4] = target: T1, TbERK8; experiment: Luciferase-based kinase inhibition assay (ATP luminescence), GST-tagged TbERK8 with MBP substrate; type: biochemical; design: raw luminescence, TbERK8: unit of the concentration uncertain; conditions: for raw luminescence, TbERK8: sheet Kinase_glo_080924_IFPS (2), replicate wells
Experimental: as §1, §2, §3

[5] = at any tested concentration (10 mM to 150 nM)

Cc1cc(Nc2nc(N[C@@H](C)c3ccc(F)cc3)c(C#N)cc2F)n[nH]1 [AZ960, (S)-5-Fluoro-2-(1-(4-fluorophenyl)ethylamino)-6-(5-methyl-1H-pyrazol-3-ylamino)nicotinonitrile]
IC50 (TbERK8 [1]; read-out: IC50 for TbERK8 (published)): 120 nM | effect on T. brucei parasite (T. brucei): killed the parasite | inhibition of HsERK8 (HsERK8 [2]): inhibiting HsERK8 poorly

Cc1ncc(-c2ccnc(Nc3ccc(S(C)(=O)=O)cc3)n2)n1C(C)C [AZD5438]
inhibition of TbERK8 (TbERK8 [1]): potent inhibitor | inhibition of HsERK8 (HsERK8 [2]): potent inhibitor

C[C@]12CCC(=O)C=C1CC[C@H]1[C@@H]3CC[C@](O)(C(=O)CO)[C@@]3(C)C[C@H](O)[C@@]12F [Fludrocortisone]
raw luminescence, HsERK8 (HsERK8 [3]; 0.00015 mM compound): 3640.57 RLU and 3844.94 RLU and 3813.5 RLU | raw luminescence, HsERK8 (HsERK8 [3]; 0.00061 mM compound): 4118.94 RLU and 4395.18 RLU and 4579.35 RLU | raw luminescence, HsERK8 (HsERK8 [3]; 0.00244 mM compound): 4696.13 RLU and 4963.39 RLU and 5212.68 RLU | raw luminescence, HsERK8 (HsERK8 [3]; 0.00977 mM compound): 4772.49 RLU and 5547.32 RLU and 5378.88 RLU | raw luminescence, HsERK8 (HsERK8 [3]; 0.03906 mM compound): 6005.48 RLU and 7079.01 RLU and 7018.37 RLU | raw luminescence, HsERK8 (HsERK8 [3]; 0.15625 mM compound): 6266 RLU and 7171.09 RLU and 7216.01 RLU | raw luminescence, HsERK8 (HsERK8 [3]; 0.62500 mM compound): 7168.84 RLU and 8628.66 RLU and 8372.63 RLU | raw luminescence, HsERK8 (HsERK8 [3]; 2.50000 mM compound): 6252.52 RLU and 7644.97 RLU and 7582.08 RLU | raw luminescence, HsERK8 (HsERK8 [3]; 10.00000 mM compound, signal = ATP left): 11251.8 RLU and 11631.4 RLU and 11334.9 RLU | inhibition of kinase activity of HsERK8 (HsERK8 [3]; [5]): did not inhibit | raw luminescence, TbERK8 (TbERK8 [4]; 0.00015 (unit uncertain) compound): 1859.59 RLU and 2054.98 RLU and 1825.9 RLU | raw luminescence, TbERK8 (TbERK8 [4]; 0.00061 (unit uncertain) compound): 756.861 RLU and 669.272 RLU and 696.222 RLU | raw luminescence, TbERK8 (TbERK8 [4]; 0.00244 (unit uncertain) compound): 839.958 RLU and 756.861 RLU and 772.582 RLU | raw luminescence, TbERK8 (TbERK8 [4]; 0.00977 (unit uncertain) compound): 471.634 RLU and 512.06 RLU and 359.34 RLU | raw luminescence, TbERK8 (TbERK8 [4]; 0.03906 (unit uncertain) compound): 947.761 RLU and 727.664 RLU and 806.27 RLU | raw luminescence, TbERK8 (TbERK8 [4]; 0.15625 (unit uncertain) compound): 579.437 RLU and 552.486 RLU and 756.861 RLU | raw luminescence, TbERK8 (TbERK8 [4]; 0.62500 (unit uncertain) compound): 736.648 RLU and 693.976 RLU and 673.763 RLU | raw luminescence, TbERK8 (TbERK8 [4]; 2.50000 (unit uncertain) compound): 1122.94 RLU and 1073.53 RLU and 1107.22 RLU | raw luminescence, TbERK8 (TbERK8 [4]; 10.00000 (unit uncertain) compound, signal = ATP left): 4505.23 RLU and 4303.1 RLU and 4100.97 RLU | inhibition of kinase activity of TbERK8 (TbERK8 [4]; [5]): did not inhibit

Cn1cc(C2=C(c3cn(CCCSC(=N)N)c4ccccc34)C(=O)NC2=O)c2ccccc21 [Ro318220, 3-{3-[4-(1-Methyl-1H-indol-3-yl)-2,5-dioxo-2,5-dihydro-1H-pyrrol-3-yl]-1H-indol-1-yl}propyl carbamimidothioate]
greater potency inhibiting HsERK8 than TbERK8 (HsERK8 [2]; HsERK8 over TbERK8): 100–300 fold | IC50 (HsERK8 [2]; read-out: IC50 for HsERK8 (reported)): 5 to 10 nM
